Paper PMC5344956 (Cancer Chemotherapy and Pharmacology, 2017)

Key:
[1] = Metabolite profiling of feces (HPLC-radiochromatography); format: in vivo, human; details: 0–144 h pool; for % Distribution in matrix: % of fecal TRA
Protocol: One-gram samples of the fecal homogenates were transferred to 50-mL polypropylene tubes, extracted with 4 mL of methanol, and centrifuged (4500g). The resulting residues were extracted three more times (once with 2 mL of methanol and twice with 1 mL of methanol containing 1% formic acid) and centrifuged. All supernatants were combined and evaporated under nitrogen, and the residue was reconstituted with 0.5 mL of methanol, vortexed, sonicated, and centrifuged. A 0.010-mL aliquot of the supernatant was removed for determination of radioactivity, and the remainder of the supernatant was transferred to an HPLC vial and stored at −80 °C.
(§1) A Finnigan Surveyor HPLC system (Thermo Fisher Scientific Inc., San Jose, CA, USA), consisting of an LC pump plus an autosampler and a UV–Vis plus detector, was used mostly for profiling (except the post-24-h plasma samples, which were analyzed using a Dionex HPLC system). A Phenomenex® Gemini® C18, 5-μm, 3.0 × 100-mm column (Phenomenex Inc., Torrance, CA, USA) was used along with a C-12 guard column (4 × 2 mm). LC conditions were as follows: solvent A was 10 mM ammonium bicarbonate in water (pH 10.0) and solvent B was 100% methanol and the flow rate was 0.8 mL/min. The following gradient was employed (B%): 0–5 min (20%), 32 min (42%), 33 min (60%), 55 min (70%), 56–60 min (95%), and 62–70 min (20%).
(§2) Reconstituted solvent extracts (0.050–0.10 mL) of plasma, urine, or feces were injected onto the HPLC column. The post-column eluate was split after UV detection into two streams (0.64 and 0.16 mL/min). The 0.64-mL stream was diverted to a fraction collector (Gilson FX 204; Gilson Medical Electronics, Middleton, WI, USA) to be collected in 96-well plates at 0.16 min/well (ScintiPlates; PerkinElmer Life Sciences, Shelton, CT, USA), and the 0.16-mL stream was directed to the mass spectrometer. The solvent in the 96-well plates was removed at 40 °C using a Genevac evaporator (Genevac, Inc., Stone Ridge, NY, USA).
(§3) The radioactivity counts per minute (CPM) in each well was determined using a MicroBeta scintillation counter (PerkinElmer Life and Analytical Sciences). The resulting CPM vs. time data were processed using Excel (Microsoft Corporation, Seattle, WA, USA). The CPM in each well was background-subtracted (using the average CPM values of the blank region of the HPLC run). Radiochromatographic profiles were obtained by plotting the resulting net CPM values against time after injection. Radioactive peaks in the chromatographic profiles were identified, and the radioactivity in each peak was summed and reported as a percentage of TRA in the HPLC run.

[2] = co-administration of ketoconazole (potent CYP3A4 inhibitor) ref 11; cited from earlier work
[3] = Plasma pharmacokinetics of TRA, ponatinib and metabolites after a single oral 45-mg [14C]ponatinib dose
Protocol: The subject release criterion was defined as follows: the combined urine and fecal radioactivity excretion for two consecutive days should fall below 1% of the dose administered.
Detailed procedures on sample collection, storage, and shipment are described in Online Resource 1. […] Fecal homogenates were prepared by adding water (four times the feces weight) and homogenizing.
TRA analysis was carried out at ABC Laboratories. The radioactivity in plasma (duplicate per time point) and urine samples (triplicate per time point) was quantitated by direct counting in a Beckman LS6000SC or LS6500 liquid scintillation counter (PerkinElmer Life and Analytical Sciences, Boston, MA, USA). Whole blood (duplicate per time point) and fecal homogenate (triplicate per time point) samples were oxidized, and the resultant ^14CO2 was trapped in Carbosorb (Calgon Carbon Corporation, Pittsburgh, PA, USA) in combination with Permafluor, followed by liquid scintillation counting to determine the radioactivity. Individual samples were counted for 5 min for whole blood and fecal matrices, and 10 min for plasma and urine matrices. Predose blood, plasma, urine, and feces samples served as respective control samples to determine and subtract the background radioactivity in the analysis.
M14 was quantitated using a different LC/MS/MS method (Online Resource 2). The pharmacokinetic analysis was carried out using WinNonlin® v6.4 (Pharsight Corp., Mountain View, CA, USA).
Aliquots of 30 µl of calibration standards, quality controls, and incurred plasma samples were transferred into a 96-well plate. Then 150 µl of ice-cold acetonitrile containing 50 ng/ml of AP30376 (d6-AP24600, internal standard) were added. The 96-well plate was vortexed for 10 min and then centrifuged at 4750 rpm for 20 min at 4°C. 100 µl aliquots of the supernatants were transferred into another 96-well plate and the samples were analyzed by liquid chromatography tandem mass spectrometry.

[4] = Metabolite profiling of plasma (HPLC-radiochromatography); format: in vivo, human; details: % of TRA
Protocol: For each subject, a 0–24 h pooled plasma sample was prepared according to the scheme outlined in the literature. In addition, several pooled plasma samples across all subjects were prepared at these time points: 5, 10, 12, […], and 48 h, and every 24 h thereafter until 240 h.
All pooled 0–24, 5, 10, 12, and 24 h plasma samples were processed as follows. […] The samples were vortexed for 30 min and centrifuged at 4500g at 4 °C for 6 min. The supernatants were transferred into new polypropylene tubes and kept on ice. The resulting plasma protein pellets were extracted twice to ensure good recovery and the extracts were combined. The combined extracts were loaded onto Ostro sample preparation plates (Waters Corporation, Milford, MA, USA), dried, eluted with 0.2 mL of cold acetonitrile, and all eluates were collected and evaporated under nitrogen (TurboVap LV; Caliper Life Sciences, Hopkinton, MA, USA). The dry residues were reconstituted in 0.1 mL of methanol, and a 0.005-mL aliquot was removed for determination of radioactivity. The remainder of the supernatants were transferred to high-performance liquid chromatography (HPLC) vials and stored at −80 °C until analysis.
Pooled post-24-h plasma samples were extracted using a slightly modified procedure. […] Appropriate volumes of formic acid were added to achieve a final concentration of 1%. Then, the samples were warmed to 37 °C and loaded to preconditioned Oasis HLB cartridges (Waters Corporation, Milford, MA, USA). These columns were then washed with water, dried under vacuum, and eluted with methanol. The eluates were collected and evaporated under nitrogen. The dry residues were reconstituted in 0.1 mL of methanol, and a 0.005-mL aliquot was removed for determination of radioactivity. The remainder of the supernatants were transferred to HPLC vials and stored at −80 °C until analysis.
as §1, §2, §3

[5] = male, human, in vivo, po, 45 mg

% of total radioactive dose [1]: 20.5/2.8% | % Distribution in matrix [1]: 23.7/3.2% | % Distribution in matrix ([1]; listed as ponatinib): 23.7% | % of total radioactive dose ([1]; listed as ponatinib): 20.5% | plasma level at 144 h postdose ([3]; human plasma, 144 h postdose): at or below detectable limits | AUC(0-t) [3, 5]: 3.48 µM·h | Tmax [3, 5]: 5 h | half-life [3, 5]: 27.4 h | concentration at 144 h ([3]; male, human, plasma, oral, 45 mg): < 2.4 nM | % Distribution in plasma ([4]; 0–24 h pooled plasma): 25.5% | % Distribution in plasma ([4]; 5 h pooled plasma): 42.4% | % Distribution in plasma ([4]; 10 h pooled plasma): 36.3% | % Distribution in plasma ([4]; 12 h pooled plasma): 51.5% | % Distribution in plasma ([4]; 36 h pooled plasma): 4.2% | % Distribution in plasma ([4]; 48 h pooled plasma): 9.4% | % Distribution in plasma ([4]; 72 h pooled plasma): 12.8% | % Distribution in plasma ([4]; 96 h pooled plasma): 13.2%
SMILES: Cc1ccc(C(=O)Nc2ccc(CN3CCN(C)CC3)c(C(F)(F)F)c2)cc1C#Cc1cnc2cccnn12.Cl [Ponatinib, 3-(imidazo[1,2-b]pyridazin-3-ylethynyl)-4-methyl-N-(4-((4-methylpiperazin-1-yl)methyl)-3-(trifluoromethyl)phenyl)benzamide hydrochloride]
increase of AUC0–∞ on co-administration of ketoconazole [2]: 47% | increase of C max on co-administration of ketoconazole [2]: 78%
